Laboratory results from patent US20220144838A1, “Compounds as Inhibitors of Macrophage Migration Inhibitory Factor” (NANJING IMMUNOPHAGE BIOTECH CO., LTD., priority 2019, published 2022).

Target: T1, MIF (Homo sapiens, UniProt P14174)
T1 sequence (P14174 2-115 limits assumed): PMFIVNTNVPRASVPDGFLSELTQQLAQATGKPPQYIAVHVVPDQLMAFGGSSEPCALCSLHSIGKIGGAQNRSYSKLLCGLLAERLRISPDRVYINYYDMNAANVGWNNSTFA
Assay: MIF tautomerase assay using pHPP as substrate
Type: biochemical
Settings: inhibition of the MIF enzyme in vitro, mean of multiple test results; for IC50: read-out: Tautomerase Inhibition pIC50 (converted)
Experimental: Tautomerase Assay Using pHPP as Substrate
This assay measured MIF's tautomerase activity in a cell-free system and was based on the determination of initial rates of the MIF-catalyzed conversion of the ketonic into the enolic tautomer of pHPP. This was achieved by spectrophotometric quantification of the complex between borate and the product of the reaction (enolic pHPP). The substrate was prepared by conversion of the enolic pHPP into its ketonic form. To achieve this, 0.5 M pHPP in methanol was diluted 10-fold with 50 mM sodium acetate buffer at pH 6.0, and then the suspension was shaken for 24 h at room temperature in darkness, and finally stored at 4° C. for not more than 1 week, with 5 min sonication being recommended before use.
Assays were performed in small-volume clear-bottom black 96 or 384-well polystyrene plates (Greiner Bio-One). First, 2 μL of the enzyme solution containing 6 nM of MIF in DPBS, 0.025% w/v BSA, and 300 μM CHAPS was dispensed onto sample and negative control wells using Multidrop Combi with metallic tip cassettes (Thermo Fisher Scientific) previously treated with Sigmacote. Then, 2 μL of the same buffer without MIF was dispensed onto positive control wells. The reaction was started by addition of the following to all wells: 2 μL of substrate solution containing 3 mM ketonic pHPP in 200 mM boric acid, 25 mM sodium phosphate, 0.025% w/v BSA, and 300 μM CHAPS at pH 6.0. In order to remove bubbles, the plate was centrifuged in an Allegra 25R centrifuge (Beckman Coulter, Inc., Brea, Calif.) at 1000 rpm for 2 min at room temperature. Then, the plate was read in an EnVision. Final concentrations of enzyme and substrate were 3 nM and 1.5 mM, respectively. Initial rates were calculated for each well as the slope of the absorbance progress curve.
All exemplified compounds (Examples 1-230) were tested in the MIF tautomerase assay or a similar assay described above. The data mentioned below represents a mean pIC50 value of multiple test results. It is understood that the data illustrated below may have reasonable variation depending on the specific conditions and procedures used by the person conducting the testing.

Question: Which “Tautomerase Inhibition pIC50” value does the source give for “4-(4-(7-(2-hydroxyethyl)-4-(indolin-1-yl)-7H-pyrrolo[2,3-d]pyrimidin-2-yl)piperazin-1-yl)phenol [Example 1]” here?
Answer: B (B means 5.01 to 6)

Question: For `Nc1nc(N2CCN(c3ccc(O)cc3)CC2)nc2c1ncn2C1CCCC(C(=O)O)C1` (mixture of isomers) [Example 189, 3-(6-amino-2-(4-(4-hydroxyphenyl)piperazin-1-yl)-9H-purin-9-yl)cyclohexane-1-carboxylic acid], which IC50 is on record?
Answer: > 10000 nM

Question: `O=C1Cc2ccccc2N1c1nc(N2CCN(c3ccc(O)cc3)CC2)nc2c1ncn2CCO` [Example 2, 1-(9-(2-hydroxyethyl)-2-(4-(4-hydroxyphenyl)piperazin-1-yl)-9H-purin-6-yl)indolin-2-one] was tested. Which IC50 did it give?
Answer: 100 to 977 nM

Question: For `OCCn1cnc2c(-n3ncc4ccccc43)nc(N3CCN(c4ccc(O)cc4)CC3)nc21` [Example 3, 4-(4-(9-(2-hydroxyethyl)-6-(1H-indazol-1-yl)-9H-purin-2-yl)piperazin-1-yl)phenol], which IC50 is on record?
Answer: 100 to 977 nM

Question: Which IC50 does the source give for `C[C@H](Nc1nc(N2CCN(c3ccc(O)cc3)CC2)nc2c1ncn2CCO)c1ccccc1` [Example 4, (S)-4-(4-(9-(2-hydroxyethyl)-6-((1-phenylethyl)amino)-9H-purin-2-yl)piperazin-1-yl)phenol] here?
Answer: > 10000 nM

Question: `OCCn1cnc2c(N[C@@H](CO)Cc3ccccc3)nc(N3CCN(c4ccc(O)cc4)CC3)nc21` [Example 5, (R)-4-(4-(6-((1-hydroxy-3-phenylpropan-2-yl)amino)-9-(2-hydroxyethyl)-9H-purin-2-yl)piperazin-1-yl)phenol] was tested. Which IC50 did it give?
Answer: > 10000 nM

Question: `OCCn1cnc2c(N[C@@H]3CCc4ccccc43)nc(N3CCN(c4ccc(O)cc4)CC3)nc21` [Example 6, (R)-4-(4-(6-((2,3-dihydro-1H-inden-1-yl)amino)-9-(2-hydroxyethyl)-9H-purin-2-yl)piperazin-1-yl)phenol] was tested. Which IC50 did it give?
Answer: > 10000 nM

Question: `OCCCn1cnc2c(N3CCc4ccccc43)nc(N3CCN(c4ccc(O)cc4)CC3)nc21` [Example 7, 4-(4-(9-(3-hydroxypropyl)-6-(indolin-1-yl)-9H-purin-2-yl)piperazin-1-yl)phenol] was tested. Which IC50 did it give?
Answer: 1000 to 9770 nM

Question: Which IC50 does the source give for `O=C(O)CCn1cnc2c(N3CCc4ccccc43)nc(N3CCN(c4ccc(O)cc4)CC3)nc21` [Example 8, 3-(2-(4-(4-hydroxyphenyl)piperazin-1-yl)-6-(indolin-1-yl)-9H-purin-9-yl)propanoic acid] here?
Answer: 100 to 977 nM

Question: `OCCn1cnc2c(-n3cnc4ccccc43)nc(N3CCN(c4ccc(O)cc4)CC3)nc21` [Example 9, 4-(4-(6-(1H-benzo[d]imidazol-1-yl)-9-(2-hydroxyethyl)-9H-purin-2-yl)piperazin-1-yl)phenol] was tested. Which IC50 did it give?
Answer: 100 to 977 nM

Question: With `O=C(O)Cn1cnc2c(-n3nc(C(=O)O)c4ccccc43)nc(N3CCN(c4ccc(O)cc4)CC3)nc21` [Example 10, 1-(9-(carboxymethyl)-2-(4-(4-hydroxyphenyl)piperazin-1-yl)-9H-purin-6-yl)-1H-indazole-3-carboxylic acid] as the molecule, how does the IC50 read?
Answer: 10 to 97.7 nM

Question: For `O=C(O)Cn1cnc2c(-n3nc(CO)c4ccccc43)nc(N3CCN(c4ccc(O)cc4)CC3)nc21` [Example 11, 2-(6-(3-(hydroxymethyl)-1H-indazol-1-yl)-2-(4-(4-hydroxyphenyl)piperazin-1-yl)-9H-purin-9-yl)acetic acid], which IC50 is on record?
Answer: 10 to 97.7 nM

Question: How did the IC50 turn out when `Oc1ccc(N2CCN(c3nc(-n4ncc5ccccc54)c4ncn(-c5cccnc5)c4n3)CC2)cc1` [Example 12, 4-(4-(6-(1H-indazol-1-yl)-9-(pyridin-3-yl)-9H-purin-2-yl)piperazin-1-yl)phenol] was run?
Answer: 100 to 977 nM

Question: How did the IC50 turn out when `Oc1ccc(N2CCN(c3cc(-n4ncc5ccccc54)n4ncc(Br)c4n3)CC2)cc1` [Example 13, 4-(4-(3-bromo-7-(1H-indazol-1-yl)pyrazolo[1,5-a]pyrimidin-5-yl)piperazin-1-yl)phenol] was run?
Answer: > 10000 nM

Question: How did the IC50 turn out when `Oc1ccc(N2CCN(c3cc(-n4ncc5ccccc54)n4ncc(-c5cccnc5)c4n3)CC2)cc1` [Example 14, 4-(4-(7-(1H-indazol-1-yl)-3-(pyridin-3-yl)pyrazolo[1,5-a]pyrimidin-5-yl)piperazin-1-yl)phenol] was run?
Answer: 1000 to 9770 nM

Question: `C[C@H]1CN(c2ccc(O)cc2)CCN1c1nc(-n2ncc3ccccc32)c2ncn(CC(=O)O)c2n1` [Example 15, (S)-2-(2-(4-(4-hydroxyphenyl)-2-methylpiperazin-1-yl)-6-(1H-indazol-1-yl)-9H-purin-9-yl)acetic acid] was tested. Which IC50 did it give?
Answer: 1000 to 9770 nM

Question: For `O=C(O)Cn1cnc2c(-n3ncc4c(CO)cccc43)nc(N3CCN(c4ccc(O)cc4)CC3)nc21` [Example 16, 2-(6-(4-(hydroxymethyl)-1H-indazol-1-yl)-2-(4-(4-hydroxyphenyl)piperazin-1-yl)-9H-purin-9-yl)acetic acid], which IC50 is on record?
Answer: 10 to 97.7 nM

Question: How did the IC50 turn out when `Oc1ccc(N2CCN(c3nc(-n4ncc5ccccc54)c4ncn(Cc5nnn[nH]5)c4n3)CC2)cc1` [Example 17, 4-(4-(9-((1H-tetrazol-5-yl)methyl)-6-(1H-indazol-1-yl)-9H-purin-2-yl)piperazin-1-yl)phenol] was run?
Answer: 100 to 977 nM

Question: With `O=C(O)Cn1cnc2c(-n3nnc4ccc(Cl)cc43)nc(N3CCN(c4ccc(O)cc4)CC3)nc21` [Example 18, 2-(6-(6-chloro-1H-benzo[d][1,2,3]triazol-1-yl)-2-(4-(4-hydroxyphenyl)piperazin-1-yl)-9H-purin-9-yl)acetic acid] as the molecule, how does the IC50 read?
Answer: 10 to 97.7 nM

Question: `O=C(O)Cn1cnc2c(-n3nnc4cc(Cl)ccc43)nc(N3CCN(c4ccc(O)cc4)CC3)nc21` [Example 19, 2-(6-(5-chloro-1H-benzo[d][1,2,3]triazol-1-yl)-2-(4-(4-hydroxyphenyl)piperazin-1-yl)-9H-purin-9-yl)acetic acid] was tested. Which IC50 did it give?
Answer: 1000 to 9770 nM

Question: With `Cc1cccc2c1nnn2-c1nc(N2CCN(c3ccc(O)cc3)CC2)nc2c1ncn2CC(=O)O` [Example 20, 2-(2-(4-(4-hydroxyphenyl)piperazin-1-yl)-6-(4-methyl-1H-benzo[d][1,2,3]triazol-1-yl)-9H-purin-9-yl)acetic acid] as the molecule, how does the IC50 read?
Answer: 10 to 97.7 nM

Question: With `O=C(O)Cn1cnc2c(-n3ncc4ccccc43)nc(N3CCN(c4ccc(O)cn4)CC3)nc21` [Example 21, 2-(2-(4-(5-hydroxypyridin-2-yl)piperazin-1-yl)-6-(1H-indazol-1-yl)-9H-purin-9-yl)acetic acid] as the molecule, how does the IC50 read?
Answer: 10 to 97.7 nM

Question: How did the IC50 turn out when `O=C(O)Cn1cnc2nc(N3CCN(c4ccc(O)cn4)CC3)nc(-n3ncc4ccccc43)c21` [Example 22, 2-(2-(4-(5-hydroxypyridin-2-yl)piperazin-1-yl)-6-(1H-indazol-1-yl)-7H-purin-7-yl)acetic acid] was run?
Answer: 1000 to 9770 nM

Question: `OCCCn1cnc2c(-n3ncc4ccccc43)nc(N3CCN(c4ccc(O)cc4)CC3)nc21` [Example 23, 4-(4-(9-(3-hydroxypropyl)-6-(1H-indazol-1-yl)-9H-purin-2-yl)piperazin-1-yl)phenol] was tested. Which IC50 did it give?
Answer: 100 to 977 nM

Question: With `O=C(O)Cn1cnc2c(-n3nnc4ccccc43)nc(N3CCN(c4ccc(O)cc4)CC3)nc21` [Example 24, 2-(6-(1H-benzo[d][1,2,3]triazol-1-yl)-2-(4-(4-hydroxyphenyl)piperazin-1-yl)-9H-purin-9-yl)acetic acid] as the molecule, how does the IC50 read?
Answer: 10 to 97.7 nM

Question: With `O=C(O)Cn1cnc2c(-c3c[nH]c4ccccc34)nc(N3CCN(c4ccc(O)cc4)CC3)nc21` [Example 25, 2-(2-(4-(4-hydroxyphenyl)piperazin-1-yl)-6-(1H-indol-3-yl)-9H-purin-9-yl)acetic acid] as the molecule, how does the IC50 read?
Answer: 1000 to 9770 nM

Question: Which IC50 does the source give for `O=C(O)Cn1cnc2c(N3Cc4ccccc4C3)nc(N3CCN(c4ccc(O)cc4)CC3)nc21` [Example 26, 2-(2-(4-(4-hydroxyphenyl)piperazin-1-yl)-6-(isoindolin-2-yl)-9H-purin-9-yl)acetic acid] here?
Answer: 100 to 977 nM

Question: Which IC50 does the source give for `O=C(O)Cn1cnc2c(N3Cc4ccccc4C3=O)nc(N3Cc4ccccc4C3=O)nc21` [Example 27, 2-(2,6-bis(1-oxoisoindolin-2-yl)-9H-purin-9-yl)acetic acid] here?
Answer: > 10000 nM

Question: For `Cc1nc2ccccc2n1-c1nc(N2CCN(c3ccc(O)cc3)CC2)nc2c1ncn2CC(=O)O` [Example 28, 2-(2-(4-(4-hydroxyphenyl)piperazin-1-yl)-6-(2-methyl-1H-benzo[d]imidazol-1-yl)-9H-purin-9-yl)acetic acid], which IC50 is on record?
Answer: 1000 to 9770 nM

Question: With `O=C(O)Cn1cnc2c(-n3c(CO)nc4ccccc43)nc(N3CCN(c4ccc(O)cc4)CC3)nc21` [Example 29, 2-(6-(2-(hydroxymethyl)-1H-benzo[d]imidazol-1-yl)-2-(4-(4-hydroxyphenyl)piperazin-1-yl)-9H-purin-9-yl)acetic acid] as the molecule, how does the IC50 read?
Answer: > 10000 nM

Question: How did the IC50 turn out when `CCC(CO)n1cnc2c(N3CCc4ccccc43)nc(N3CCN(c4ccc(O)cc4)CC3)nc21` (stereo not shown) [Example 30, 4-(4-(9-(1-hydroxybutan-2-yl)-6-(indolin-1-yl)-9H-purin-2-yl)piperazin-1-yl)phenol] was run?
Answer: 1000 to 9770 nM
